The nature of assay [1]: (§1) In Vitro GIRK Thallium Flux Assay (60 minutes): Human Embryonic Kidney (HEK-293) cell lines co-expressing rat mGlu receptors 2, 3, 4, 6, 7 or 8 and G protein-coupled inwardly-rectifying potassium (GIRK) channels_ENREF_54 were grown in Growth Media containing 45% DMEM, 45% F-12, 10% FBS, 20 mM HEPES, 2 mM L-glutamine, antibiotic/antimycotic, non-essential amino acids, 700 μg/ml G418, and 0.6 μg/ml puromycin at 37° C. in the presence of 5% CO2. All cell culture reagents were purchased from Invitrogen Corp. (Carlsbad, Calif.) unless otherwise noted. Compound activity at the group II (mGlu2 and mGlu3) mGlus was assessed using thallium flux through GIRK channels. Briefly, cells were plated into 384-well, black-walled, clear-bottomed poly-D-lysine-coated plates at a density of 15,000 cells/20 μL/well in DMEM containing 10% dialyzed FBS, 20 mM HEPES, and 100 units/mL penicillin/streptomycin (assay media). Plated cells were incubated overnight at 37° C. in the presence of 5% CO2. The following day, the medium was exchanged from the cells to assay buffer [Hanks' balanced salt solution (Invitrogen) containing 20 mM HEPES, pH 7.3] using an ELX405 microplate washer (BioTek), leaving 20 μL/well, followed by the addition of 20 μL/well FluoZin2-AM (330 nM final concentration) indicator dye (Invitrogen; prepared as a stock in DMSO and mixed in a 1:1 ratio with Pluronic acid F-127) in assay buffer. Cells were incubated for 1 h at room temperature, and the dye exchanged to assay buffer using an ELX405, leaving 20 μL/well. Test compounds were diluted to 2 times their final desired concentration in assay buffer (0.3% DMSO final concentration). Agonists were diluted in thallium buffer [125 mM sodium bicarbonate (added fresh the morning of the experiment), 1 mM magnesium sulfate, 1.8 mM calcium sulfate, 5 mM glucose, 12 mM thallium sulfate, and 10 mM HEPES, pH 7.3] at 5 times the final concentration to be assayed. Cell plates and compound plates were loaded onto a kinetic imaging plate reader (FDSS 6000 or 7000; Hamamatsu Corporation, Bridgewater, N.J.). Appropriate baseline readings were taken (10 images at 1 Hz; excitation, 470±20 nm; emission, 540±30 nm) and test compounds were added in a 20 μL volume and incubated for either 2.5 min or 60 min as indicated before the addition of 10 μL of thallium buffer with or without agonist. After the addition of agonist, data were collected for approximately an additional 60 min. Data were analyzed using Excel (Microsoft Corp, Redmond, Wash.). The slope of the fluorescence increase beginning 5 s after thallium/agonist addition and ending 15 s after thallium/agonist addition was calculated, corrected to vehicle and maximal agonist control slope values, and plotted in using either XLfit (ID Business Solutions Ltd) or Prism software (GraphPad Software, San Diego, Calif.) to generate concentration-response curves. Potencies were calculated from fits using a four-point parameter logistic equation. For concentration-response curve experiments, compounds were serially diluted 1:3 into 10 point concentration response curves and were transferred to daughter plates using an Echo acoustic plate reformatter (Labcyte, Sunnyvale, Calif.). Test compounds were applied and followed by EC80 concentrations of glutamate. The conditions noted are these: HEK293, 1 h.

Assay [2] can be described thus: as §1, with “Assay (2.5” for “Assay (60”, “additional 2.5” for “additional 60”. The conditions noted are these: HEK293, 2.5 min.
A short description of assay [3]: as §1. The conditions noted are these: HEK293, 1 h. The source holds these as a separate data set.
A short description of assay [4]: as §1, with “Assay (2.5” for “Assay (60”, “additional 2.5” for “additional 60”. The conditions noted are these: HEK293, 2.5 min. The source holds these as a separate data set.

Molecules are shown by their SMILES.

Regarding `Clc1ccccc1-c1cccc(-c2csc(-c3ccccc3)n2)c1`, the EC50 in assay [1] is more than 10 µM; in assay [2], more than 10 µM; in assay [3] it was more than 30 µM; in assay [4], more than 30 µM.

In the case of `c1ccc(-c2cccc(-c3csc(-c4ccc5ccccc5c4)n3)c2)cc1`, the EC50 is more than 10 µM in assay [1], more than 30 µM in assay [2], 4.98 µM in assay [3] and more than 10 µM in assay [4].

As to `Cc1cc(NC(=O)OC(C)(C)C)c(NC(=O)CC(=O)c2cccc(OCc3ccccc3)c2)cc1C(F)(F)F`, the EC50 in assay [1] was 0.74 µM; in assay [2] it was 2.93 µM; in assay [3], 2.36 µM; in assay [4] it was more than 10 µM.

On to `C(=C\c1nc(-c2cccc(-c3ccccc3)c2)cs1)/c1ccccc1`, for which the EC50 in assay [1] was more than 10 µM; in assay [2], more than 10 µM; in assay [3] it was more than 10 µM; in assay [4], 3.47 µM.

Turning to `COc1ccc(-c2nc(-c3cccc(-c4ccccc4)c3)cs2)cc1OC`, the EC50 in assay [1] was more than 10 µM; in assay [2], 4.02 µM; in assay [3], 1.1 µM; in assay [4], 2.58 µM.

`c1ccc(-c2nc(-c3cccc(-c4ccco4)c3)nn2-c2ccccc2)cc1`: the EC50 in assay [1] was more than 30 µM; in assay [2], 0.21 µM; in assay [3] it was more than 30 µM; in assay [4], more than 10 µM.

Regarding `c1ccc(Cn2nc(-c3cccc(-c4ccccc4)c3)nc2-c2ccccc2)cc1`, the EC50 in assay [1] was 1.4 µM; in assay [2] it was 3.9 µM; in assay [3] it was 2.71 µM; in assay [4], more than 10 µM.

Turning to `Clc1ccc(-c2cccc(-c3csc(-c4ccccc4)n3)c2)cc1`, the EC50 in assay [1] was 1.33 µM; in assay [2] it was 0.79 µM; in assay [3], 0.8 µM; in assay [4], 0.57 µM.

Consider `Fc1ccc(-c2csc(-c3ccccc3)n2)cc1`, for which the EC50 in assay [1] is more than 30 µM; in assay [2], more than 30 µM; in assay [3] it was more than 30 µM; in assay [4], more than 10 µM.

Consider `c1ccc(-c2cccc(-c3nsc(-c4ccccc4)n3)c2)cc1`, for which the EC50 in assay [1] is 0.45 µM; in assay [2], 2.28 µM; in assay [3], 0.05 µM; in assay [4], 0.32 µM.

Take `Cc1cc(NC(=O)OC(C)(C)C)c(NC(=O)CC(=O)c2cccc(Oc3ccccc3)c2)cc1C(F)(F)F`: the EC50 was 1.93 µM in assay [1], 2.62 µM in assay [2], 1.19 µM in assay [3] and 2.21 µM in assay [4].

As for `c1ccc(-c2cccc(-c3coc(-c4ccccc4)n3)c2)cc1`, the EC50 in assay [1] is more than 30 µM; in assay [2], more than 30 µM; in assay [3] it was more than 10 µM; in assay [4] it was more than 10 µM.

As to `Fc1ccc(-c2cccc(-c3nsc(-c4ccoc4)n3)c2)cc1`, the EC50 is more than 10 µM in assay [1], more than 10 µM in assay [2], 3.71 µM in assay [3] and 3.63 µM in assay [4].

`FC(F)(F)c1ccc(-c2nc(-c3cccc(-c4ccccc4)c3)nn2-c2ccccc2)cn1`: the EC50 is 0.85 µM in assay [1], 5.56 µM in assay [2], more than 10 µM in assay [3] and more than 10 µM in assay [4].

On to `Fc1ccc(-c2cccc(-c3csc(-c4ccccc4)c3)c2)cc1`, for which the EC50 in assay [1], in assay [2], in assay [3] and in assay [4] was more than 10 µM in each case.

For `O/N=C\c1cc(-c2cccc(-c3csc(-c4ccccc4)n3)c2)ccc1F`, the EC50 in assay [1] is more than 10 µM; in assay [2] it was more than 30 µM; in assay [3] it was more than 10 µM; in assay [4], more than 30 µM.

Regarding `Fc1ccccc1-c1cccc(-c2nc(-c3ccccc3)n(-c3ccccc3)n2)c1`, the EC50 was 2.29 µM in assay [1], 4.45 µM in assay [2], more than 10 µM in assay [3] and more than 10 µM in assay [4].

`c1ccc(-c2cccc(-c3nc(-c4ccoc4)n(-c4ccccc4)n3)c2)cc1`: the EC50 in assay [1] is 2.63 µM; in assay [2] it was more than 10 µM; in assay [3], 3.78 µM; in assay [4], more than 10 µM.

Turning to `CC(C)n1nc(-c2cccc(-c3ccccc3)c2)nc1-c1ccccc1`, the EC50 in assay [1] was more than 10 µM; in assay [2], more than 10 µM; in assay [3], more than 30 µM; in assay [4] it was more than 10 µM.

Take `Fc1cccc(-c2cccc(-c3nsc(-c4ccoc4)n3)c2)c1`: the EC50 in assay [1] was 1.23 µM; in assay [2], 3.43 µM; in assay [3], 0.11 µM; in assay [4], 0.17 µM.

Consider `c1ccc(-c2cccc(-c3csc(-c4cccc5ccccc45)n3)c2)cc1`, for which the EC50 is more than 30 µM in assay [1], more than 30 µM in assay [2], more than 10 µM in assay [3] and more than 10 µM in assay [4].

Regarding `Clc1cccc(-c2cccc(-c3csc(-c4ccccc4)n3)c2)c1`, the EC50 in assay [1], in assay [2], in assay [3] and in assay [4] was more than 10 µM in each case.

Take `Clc1ccc(-c2nc(-c3cccc(-c4ccccc4)c3)cs2)cn1`: the EC50 in assay [1] is 0.83 µM; in assay [2] it was more than 10 µM; in assay [3] it was 0.27 µM; in assay [4] it was 3.83 µM.

As to `c1ccc(-c2cccc(-c3cc(-c4ccccc4)on3)c2)cc1`, the EC50 is more than 10 µM in assay [1], more than 10 µM in assay [2], more than 30 µM in assay [3] and more than 10 µM in assay [4].

With `COc1ccc(-n2nc(-c3cccc(-c4ccccc4)c3)nc2-c2ccccc2)cc1`, the EC50 in assay [1] is 0.46 µM; in assay [2] it was 2.96 µM; in assay [3], 6.58 µM; in assay [4], more than 10 µM.

In the case of `Cn1nc(-c2cccc(-c3ccccc3)c2)nc1-c1ccccc1`, the EC50 is more than 10 µM in assay [1], more than 10 µM in assay [2], 1.48 µM in assay [3] and 0.59 µM in assay [4].

For `Fc1cccc(-c2cccc(-c3nc(-c4ccccc4)n(-c4ccccc4)n3)c2)c1`, the EC50 was 1.51 µM in assay [1], 3.11 µM in assay [2], more than 10 µM in assay [3] and more than 10 µM in assay [4].

As for `c1ccc(-c2cccc(-c3nc(-c4cccs4)n(-c4ccccc4)n3)c2)cc1`, the EC50 was 1.68 µM in assay [1], 4.29 µM in assay [2], 3.67 µM in assay [3] and more than 10 µM in assay [4].

On to `c1ccc(-c2cccc(-c3n[nH]c(-c4ccccc4)n3)c2)cc1`, for which the EC50 was more than 30 µM in assay [1], more than 30 µM in assay [2], more than 30 µM in assay [3] and more than 10 µM in assay [4].

With `Fc1ccccc1-c1cccc(-c2nsc(-c3ccccc3)n2)c1`, the EC50 was more than 10 µM in assay [1], more than 10 µM in assay [2], 0.11 µM in assay [3] and 0.89 µM in assay [4].

On to `c1ccc(-c2cccc(-c3noc(-c4ccccc4)n3)c2)cc1`, for which the EC50 in assay [1] was more than 10 µM; in assay [2], more than 10 µM; in assay [3], 0.79 µM; in assay [4], 1.33 µM.

For `COc1ccccc1-c1cccc(-c2csc(-c3ccccc3)n2)c1`, the EC50 in assay [1] is more than 10 µM; in assay [2] it was more than 10 µM; in assay [3], 1.35 µM; in assay [4], 1.81 µM.

Regarding `Fc1ccc(-c2cccc(-c3nsc(-c4ccccc4)n3)c2)cc1`, the EC50 was 0.46 µM in assay [1], 0.52 µM in assay [2], 0.05 µM in assay [3] and 0.1 µM in assay [4].

As for `Fc1cccc(-n2nc(-c3cccc(-c4ccccc4)c3)nc2-c2ccccc2)c1`, the EC50 in assay [1] is 1.16 µM; in assay [2], more than 10 µM; in assay [3], more than 10 µM; in assay [4], 3.22 µM.

The record behind these values is ChEMBL document CHEMBL5727031, “Metabotropic glutamate receptor negative allosteric modulators (NAMS) and uses thereof” (2018).
